One test deals with T1, STAT6 (Homo sapiens, UniProt P42226).
T1 construct: stably transfected HaCaT keratinocyte cell line, which expresses NanoLuc luciferase reporter gene under the transcriptional control of the STAT6 responsive promoter; endogenous in cells; host or cells: HaCaT keratinocyte reporter cell line (stably transfected with a NanoLuc reporter)
T1 sequence (P42226 1-847): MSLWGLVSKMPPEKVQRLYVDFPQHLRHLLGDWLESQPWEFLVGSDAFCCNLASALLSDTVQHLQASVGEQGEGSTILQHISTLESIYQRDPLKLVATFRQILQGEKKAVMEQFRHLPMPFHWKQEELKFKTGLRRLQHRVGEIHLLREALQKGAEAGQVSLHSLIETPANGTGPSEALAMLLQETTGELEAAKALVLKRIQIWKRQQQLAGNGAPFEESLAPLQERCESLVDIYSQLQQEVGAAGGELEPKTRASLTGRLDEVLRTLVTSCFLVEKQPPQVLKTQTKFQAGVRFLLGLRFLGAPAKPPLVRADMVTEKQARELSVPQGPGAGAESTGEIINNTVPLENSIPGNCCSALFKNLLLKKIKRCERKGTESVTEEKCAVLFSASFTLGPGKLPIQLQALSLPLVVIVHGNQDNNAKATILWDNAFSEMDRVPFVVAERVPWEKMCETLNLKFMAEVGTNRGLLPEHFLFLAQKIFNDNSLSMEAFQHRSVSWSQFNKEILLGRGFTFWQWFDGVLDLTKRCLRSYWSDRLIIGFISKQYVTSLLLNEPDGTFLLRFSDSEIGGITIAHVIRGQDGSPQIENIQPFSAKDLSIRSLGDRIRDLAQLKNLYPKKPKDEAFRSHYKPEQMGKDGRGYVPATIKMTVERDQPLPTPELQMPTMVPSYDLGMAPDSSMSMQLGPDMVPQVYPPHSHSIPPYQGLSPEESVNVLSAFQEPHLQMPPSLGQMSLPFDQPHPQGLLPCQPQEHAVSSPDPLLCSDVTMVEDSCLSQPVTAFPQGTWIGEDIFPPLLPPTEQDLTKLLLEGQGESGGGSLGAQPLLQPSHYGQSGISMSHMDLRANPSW
As to the kind of experiment: STAT6 Reporter Luciferase Assay (IL-13 stimulated HaCaT keratinocyte NanoLuc reporter cells). The format is cell-based. The conditions noted are these: IL-13 stimulated HaCaT STAT6 NanoLuc reporter cells; read-out: Reporter EC50. The protocol:
Pharmacological measurements of STAT6 transcriptional activity through the IL-13-IL-13 receptor/IL-4 receptor pathway were made with a stably transfected HaCaT keratinocyte cell line, which expresses NanoLuc luciferase reporter gene under the transcriptional control of the STAT6 responsive promoter for IL-13Ra2. The readout of the STAT6 activity utilized Promega Nano-Glo Luciferase assay kit.
The reporter cells were cultured in a growth media comprised of DMEM High Glucose, no calcium and no glutamine, 10% heat inactivated fetal bovine serum (HI FBS), 1% 100× Glutamax, and 100 U/mL Penicillin-Streptomycin (units of penicillin in 1 mL of streptomycin). Seven thousand cells were plated in 25 microliter (μL) per well in a 384-well, white bottom, tissue culture plate. Cells were cultured overnight at 37° C. The next day, test compounds (solubilized and serially diluted in DMSO, in an 11 point, 4-fold dilution series in duplicate) were spotted, 60 nanoliters (nL) per well, into a 384 well v-bottom polypropylene plate. Thirty μL per well of 37° C. dosing media (Dulbecco's modified eagle medium (DMEM) High Glucose, no calcium and no glutamine with 2% HI FBS) was added to the compound plate. Growth media was removed from the cell plate, and the cells were washed with DPBS. Twenty μL per well of compounds diluted in dosing media were transferred from the compound plate to the cell plate and the compounds were further diluted with an additional 15 μL of dosing media in the cell plate: the cell plate was incubated for two hours at 37° C. After two hours, STAT6 activity was stimulated with the addition of 5 μL per well of IL-13 (R&D Systems) in dosing media with a final concentration of 0.12 nM IL13. Cells were incubated at 37° C. for 4 hours to allow for reporter gene expression, then all media was removed from the plate. The cell plates were treated with assay buffer and Luciferase substrate from Nano-Glo Luciferase Assay Kit for 15 min and then measured for luminescence on an EnVision 2105 multilabel reader (PerkinElmer).
For orientation: EC50 means the concentration at which the effect is half-maximal. Consider `CC(C)n1nc(C(=O)NCc2ccc(NC(=O)N3CCN(C)CC3)cc2)c2c1C(C(F)(F)F)CN(c1ccc(C(=O)N(C)C)cc1)C2` (single isomer, unassigned) [Example 702, rel-(R or S)-5-(4-(dimethylcarbamoyl)phenyl)-1-isopropyl-N-(4-(4-methylpiperazine-1-carboxamido)benzyl)-7-(trifluoromethyl)-4,5,6,7-tetrahydro-1H-pyrazolo[4,3-c]pyridine-3-carboxamide], for which the EC50 was determined as 0.01 µM. The same measure, in the same setting: under `CC(C)n1nc(C(=O)NCc2ccc(NC(=O)N3CCN(C)CC3)cc2)c2c1C(C(F)(F)F)CN(c1ccc(C(=O)N(C)C)cc1)C2` (single isomer, unassigned) [Example 705, rel-(R or S)-5-(4-(dimethylcarbamoyl)phenyl)-1-isopropyl-N-(4-(4-methylpiperazine-1-carboxamido)benzyl)-7-(trifluoromethyl)-4,5,6,7-tetrahydro-1H-pyrazolo[4,3-c]pyridine-3-carboxamide] stands 0.0002 µM; under `CCn1nc2c(c1C(=O)NCc1ccc(NC(=O)N(C)C)cc1)CN(c1ccc(C(=O)N(C)C)cn1)[C@@H](C)[C@@H]2C` (stereo in doubt) [Example 316, rel-(6S,7S)-5-(5-(dimethylcarbamoyl)pyridin-2-yl)-N-(4-(3,3-dimethylureido)benzyl)-2-ethyl-6,7-dimethyl-4,5,6,7-tetrahydro-2H-pyrazolo[4,3-c]pyridine-3-carboxamide], 3.77 µM.

`CCn1nc2c(c1C(=O)NCc1ccc(NC(=O)N(C)C)cc1)CN(c1ccc(C(=O)N(C)C)cn1)[C@H](C)[C@H]2C` (stereo in doubt) [Example 317, rel-(6R,7R)-5-(5-(dimethylcarbamoyl)pyridin-2-yl)-N-(4-(3,3-dimethylureido)benzyl)-2-ethyl-6,7-dimethyl-4,5,6,7-tetrahydro-2H-pyrazolo[4,3-c]pyridine-3-carboxamide]: the EC50 was 0.355 µM.

Take `CC(C)n1nc(C(=O)NCc2ccc(NC(=O)N3CC4CC4C3)cc2)c2c1CCN(c1ccc(C(=O)N(C)C)cn1)C2` (centres unmarked) [Example 186, N-(4-(3-azabicyclo[3.1.0]hexane-3-carboxamido)benzyl)-5-(5-(dimethylcarbamoyl)pyridin-2-yl)-1-isopropyl-4,5,6,7-tetrahydro-1H-pyrazolo[4,3-c]pyridine-3-carboxamide]: the EC50 turned out to be 0.01 µM. The same measure, in the same setting: under `CC(=O)N[C@H]1CCN(C(=O)c2ccc(N3CCc4c(c(C(=O)NCc5ccc(NC(=O)N(C)C)cc5)nn4C(C)C)C3)nc2)C1` [Example 193, (S)-5-(5-(3-Acetamidopyrrolidine-1-carbonyl)pyridin-2-yl)-N-(4-(3,3-dimethylureido)benzyl)-1-isopropyl-4,5,6,7-tetrahydro-1H-pyrazolo[4,3-c]pyridine-3-carboxamide] stands 0.372 µM. On the same count and under the same terms, the same measure for `CC(C)n1nc(C(=O)NCc2ccc(NC(=O)N(C)C)cc2)c2c1CCN(c1ccc(C(=O)N3CCCOCC3)cn1)C2` [Example 195, 5-(5-(1,4-oxazepane-4-carbonyl)pyridin-2-yl)-N-(4-(3,3-dimethylureido)benzyl)-1-isopropyl-4,5,6,7-tetrahydro-1H-pyrazolo[4,3-c]pyridine-3-carboxamide]: 0.164 µM; for `CCC(=O)N1CCN(C(=O)c2ccc(N3CCc4c(c(C(=O)NCc5ccc(NC(=O)N(C)C)cc5)nn4C(C)C)C3)nc2)CC1` [Example 196, N-(4-(3,3-dimethylureido)benzyl)-1-isopropyl-5-(5-(4-propionylpiperazine-1-carbonyl)pyridin-2-yl)-4,5,6,7-tetrahydro-1H-pyrazolo[4,3-c]pyridine-3-carboxamide]: 0.09 µM; for `CC(C)n1nc(C(=O)NCc2ccc(NC(=O)N(C)C)cc2)c2c1CCN(c1ccc(C(=O)N3CCC[C@H]3C(N)=O)cn1)C2` [Example 197, (S)-5-(5-(2-carbamoylpyrrolidine-1-carbonyl)pyridin-2-yl)-N-(4-(3,3-dimethylureido)benzyl)-1-isopropyl-4,5,6,7-tetrahydro-1H-pyrazolo[4,3-c]pyridine-3-carboxamide]: 0.197 µM. On to `COC1CCN(C(=O)c2ccc(N3CCc4c(c(C(=O)NCc5ccc(NC(=O)N(C)C)cc5)nn4C(C)C)C3)nc2)CC1` [Example 199, N-(4-(3,3-dimethylureido)benzyl)-1-isopropyl-5-(5-(4-methoxypiperidine-1-carbonyl)pyridin-2-yl)-4,5,6,7-tetrahydro-1H-pyrazolo[4,3-c]pyridine-3-carboxamide], for which the EC50 is 0.125 µM. The same measure, in the same setting: the same measure for `CC(=O)N1CCCN(C(=O)c2ccc(N3CCc4c(c(C(=O)NCc5ccc(NC(=O)N(C)C)cc5)nn4C(C)C)C3)nc2)CC1` [Example 200, 5-(5-(4-acetyl-1,4-diazepane-1-carbonyl)pyridin-2-yl)-N-(4-(3,3-dimethylureido)benzyl)-1-isopropyl-4,5,6,7-tetrahydro-1H-pyrazolo[4,3-c]pyridine-3-carboxamide]: 0.363 µM. The same measure, in the same setting: the same measure for `CCO[C@H]1CCN(C(=O)c2ccc(N3CCc4c(c(C(=O)NCc5ccc(NC(=O)N(C)C)cc5)nn4C(C)C)C3)nc2)C1` [Example 201, (S)-N-(4-(3,3-dimethylureido)benzyl)-5-(5-(3-ethoxypyrrolidine-1-carbonyl)pyridin-2-yl)-1-isopropyl-4,5,6,7-tetrahydro-1H-pyrazolo[4,3-c]pyridine-3-carboxamide]: 0.343 µM; for `COc1nc(N2CCc3c(c(C(=O)NCc4ccc(NC(=O)N(C)C)cc4)nn3C(C)C)C2)ccc1[C@]1(C)CNC(=O)C1` [Example 202, (R)-N-(4-(3,3-dimethylureido)benzyl)-1-isopropyl-5-(6-methoxy-5-(3-methyl-5-oxopyrrolidin-3-yl)pyridin-2-yl)-4,5,6,7-tetrahydro-1H-pyrazolo[4,3-c]pyridine-3-carboxamide]: 8.08 µM. Still for that read-out and setting: the same measure for `CC(C)n1nc(C(=O)NCc2ccc(NC(=O)N(C)C)cc2)c2c1CCN(c1ccc(C(=O)N3CCOCC3)cn1)C2` [Example 206, N-(4-(3,3-dimethylureido)benzyl)-1-isopropyl-5-(5-(morpholine-4-carbonyl)pyridin-2-yl)-4,5,6,7-tetrahydro-1H-pyrazolo[4,3-c]pyridine-3-carboxamide]: 0.097 µM; for `CC(C)n1nc(C(=O)NCc2ccc(NC(=O)N(C)C)cc2)c2c1CCN(c1ccc(C(=O)N3C[C@@H](C)O[C@@H](C)C3)cn1)C2` [Example 207, 5-(5-((2R,6S)-2,6-dimethylmorpholine-4-carbonyl)pyridin-2-yl)-N-(4-(3,3-dimethylureido)benzyl)-1-isopropyl-4,5,6,7-tetrahydro-1H-pyrazolo[4,3-c]pyridine-3-carboxamide]: 0.272 µM.

The same test, now with this note: STAT6 NanoLuc luciferase reporter, IL-13 stimulated HaCaT keratinocyte cells; read-out: Reporter EC50.
Turning to `CC(C)n1nc(C(=O)NCc2ccc(NC(=O)N3CCC(CC#N)CC3)cc2)c2c1CCN(c1ccc(C(=O)N(C)C)cn1)C2` [Example 149, N-(4-(4-(cyanomethyl)piperidine-1-carboxamido)benzyl)-5-(5-(dimethylcarbamoyl)pyridin-2-yl)-1-isopropyl-4,5,6,7-tetrahydro-1H-pyrazolo[4,3-c]pyridine-3-carboxamide], the EC50 was 0.005 µM.

For `CC(C)n1nc(C(=O)NCc2ccc(NC(=O)N3CCCC(N(C)C)C3)cc2)c2c1CCN(c1ccc(C(=O)N(C)C)cn1)C2` (centres unmarked) [Example 151, N-(4-(3-(dimethylamino)piperidine-1-carboxamido)benzyl)-5-(5-(dimethylcarbamoyl)pyridin-2-yl)-1-isopropyl-4,5,6,7-tetrahydro-1H-pyrazolo[4,3-c]pyridine-3-carboxamide], the EC50 is 0.009 µM.

The values above are taken from patent publication US20250320213A1, “Nitrogen-Containing Heterocyclic Compounds” (Pfizer Inc., priority 2024, published 2025).
